Measured values from ChEMBL document CHEMBL5500356, “Design, synthesis, and biological evaluation of novel benzimidazole derivatives as anti-cervical cancer agents through PI3K/Akt/mTOR pathway and tubulin inhibition” (Eur J Med Chem, 2024).
The source made the active and inactive calls. The rule behind the calls is not given here.

Experiments:
SiHa [1] = assay: Antiproliferative activity against human SiHa cells assessed as cell viability incubated for 48 hrs by MTT assay; assay type: functional, cell-based
HeLa = assay: Antiproliferative activity against human HeLa cells assessed as cell viability incubated for 48 hrs by MTT assay; assay type: functional, cell-based
[2] = Cytotoxicity against human HEK293T cells assessed as cell viability incubated for 48 hrs by MTT assay; assay type: toxicity, cell-based, HEK-293T
Ca-Ski = assay: Antiproliferative activity against human Ca-Ski cells assessed as cell viability incubated for 48 hrs by MTT assay; assay type: functional, cell-based
[3] = Cytotoxicity against human L02 cells assessed as cell viability incubated for 48 hrs by MTT assay; assay type: toxicity, cell-based
SiHa [4] = assay: Induction of cell cycle arrest in human SiHa cells assessed as accumulation cells at S phase at 8 uM measured after 24 hrs by flow cytometry (reference value: 14.31%); assay type: functional
SiHa [5] = assay: Induction of cell cycle arrest in human SiHa cells assessed as accumulation cells at G2/M phase at 16 uM measured after 24 hrs by flow cytometry (reference value: 5.24%); assay type: functional
[6] = Acute toxicity in AB-wild type zebrafish embryo assessed as malformation rate at 12.5 uM measured after 96 hrs; design: species or system Danio rerio; conditions: in vivo
[7] = Acute toxicity in AB-wild type zebrafish embryo assessed as mortalities at 12.5 uM measured after 96 hrs; design: species or system Danio rerio; conditions: in vivo, read-out: Activity
SiHa [8] = assay: Effect on Akt protein expression in human SiHa cells at 4 to 16 uM incubated for 24 hrs by Western blot analysis; assay type: functional, cell-based; conditions: dose 4-16 µM
[9] = Acute toxicity in AB-wild type zebrafish embryo assessed as malformation rate at 100 uM measured after 96 hrs; design: species or system Danio rerio; conditions: in vivo
[10] = Acute toxicity in AB-wild type zebrafish embryo assessed as mortalities at 200 uM measured after 96 hrs; design: species or system Danio rerio; conditions: in vivo, read-out: Activity
SiHa [11] = assay: Induction of apoptosis in human SiHa cells assessed as early apoptotic cells at 16 uM incubated for 24 hr by flow cytometry based annexin V-FITC/PI double-staining analysis (reference value: 2.95%); assay type: functional
SiHa [12] = assay: Induction of cell cycle arrest in human SiHa cells assessed as accumulation cells at G0/G1 phase at 16 uM measured after 24 hrs by flow cytometry (reference value: 80.45%); assay type: functional
[13] = Acute toxicity in AB-wild type zebrafish embryo assessed as malformation rate at 50 uM measured after 96 hrs; design: species or system Danio rerio; conditions: in vivo
[14] = Acute toxicity in AB-wild type zebrafish embryo assessed as malformation rate at 25 uM measured after 96 hrs; design: species or system Danio rerio; conditions: in vivo
[15] = biological target: RAC-alpha serine/threonine-protein kinase (Homo sapiens) (UniProt P31749); assay: Inhibition of Akt phosphorylation in human SiHa cells at 4 to 16 uM incubated for 24 hrs by Western blot analysis; assay type: cell-based; conditions: dose 4-16 µM
[16] = Acute toxicity in AB-wild type zebrafish embryo assessed as mortalities at 25 uM measured after 96 hrs; design: species or system Danio rerio; conditions: in vivo, read-out: Activity
[17] = Acute toxicity in AB-wild type zebrafish embryo assessed as mortalities at 100 uM measured after 96 hrs; design: species or system Danio rerio; conditions: in vivo, read-out: Activity
SiHa [18] = assay: Induction of cell cycle arrest in human SiHa cells assessed as accumulation cells at G0/G1 phase at 8 uM measured after 24 hrs by flow cytometry (reference value: 80.45%); assay type: functional
[19] = Acute toxicity in AB-wild type zebrafish embryo assessed as mortalities at 50 uM measured after 96 hrs; design: species or system Danio rerio; conditions: in vivo, read-out: Activity
SiHa [20] = assay: Induction of apoptosis in human SiHa cells assessed as late apoptotic cells at 4 uM incubated for 24 hr by flow cytometry based annexin V-FITC/PI double-staining analysis (reference value: 8.67%); assay type: functional
SiHa [21] = assay: Induction of apoptosis in human SiHa cells assessed as late apoptotic cells at 16 uM incubated for 24 hr by flow cytometry based annexin V-FITC/PI double-staining analysis (reference value: 8.67%); assay type: functional
SiHa [22] = assay: Induction of apoptosis in human SiHa cells assessed as early apoptotic cells at 8 uM incubated for 24 hr by flow cytometry based annexin V-FITC/PI double-staining analysis (reference value: 2.95%); assay type: functional
[23] = Acute toxicity in AB-wild type zebrafish embryo assessed as mortalities at 400 uM measured after 96 hrs; design: species or system Danio rerio; conditions: in vivo, read-out: Activity
Tubulin (Homo sapiens) [24] = biological target: T1, Tubulin (Homo sapiens) (UniProt P68371+Q9H4B7+P0DPH7+P68366+Q13509+Q71U36+P04350+Q3ZCM7+P07437+P68363+Q9BQE3+Q6PEY2+Q13885+Q9BVA1+Q9BUF5); assay: Inhibition of tubulin polymerization in human SiHa cells incubated for 24 hrs by DAPI fluorescence staining assay; assay type: cell-based; conditions: dose 4-16 µM
[25] = Acute toxicity in AB-wild type zebrafish embryo assessed as malformation rate at 200 uM measured after 96 hrs; design: species or system Danio rerio; conditions: in vivo
SiHa [26] = assay: Induction of cell cycle arrest in human SiHa cells assessed as accumulation cells at G2/M phase at 4 uM measured after 24 hrs by flow cytometry (reference value: 5.24%); assay type: functional
SiHa [27] = assay: Induction of cell cycle arrest in human SiHa cells assessed as accumulation cells at S phase at 16 uM measured after 24 hrs by flow cytometry (reference value: 14.31%); assay type: functional
[28] = Acute toxicity in AB-wild type zebrafish embryo assessed as malformation rate at 400 uM measured after 96 hrs; design: species or system Danio rerio; conditions: in vivo
SiHa [29] = assay: Induction of cell cycle arrest in human SiHa cells assessed as accumulation cells at G2/M phase at 8 uM measured after 24 hrs by flow cytometry (reference value: 5.24%); assay type: functional
SiHa [30] = assay: Induction of cell cycle arrest in human SiHa cells assessed as accumulation cells at G0/G1 phase at 4 uM measured after 24 hrs by flow cytometry (reference value: 80.45%); assay type: functional
SiHa [31] = assay: Induction of apoptosis in human SiHa cells assessed as early apoptotic cells at 4 uM incubated for 24 hr by flow cytometry based annexin V-FITC/PI double-staining analysis (reference value: 2.95%); assay type: functional
Tubulin (Homo sapiens) [32] = biological target: T1, Tubulin (Homo sapiens); assay: Inhibition of tubulin formation in human SiHa cells incubated for 24 hrs by Western blot analysis; assay type: cell-based
SiHa [33] = assay: Inhibition of PI3K phosphorylation in human SiHa cells at 4 to 16 uM incubated for 24 hrs by Western blot analysis; assay type: cell-based; conditions: dose 4-16 µM
SiHa [34] = assay: Induction of cell cycle arrest in human SiHa cells assessed as accumulation cells at S phase at 4 uM measured after 24 hrs by flow cytometry (reference value: 14.31%); assay type: functional
SiHa [35] = assay: Effect on mTOR protein expression in human SiHa cells at 4 to 16 uM incubated for 24 hrs by Western blot analysis; assay type: functional, cell-based; conditions: dose 4-16 µM
SiHa [36] = assay: Induction of apoptosis in human SiHa cells assessed as late apoptotic cells at 8 uM incubated for 24 hr by flow cytometry based annexin V-FITC/PI double-staining analysis (reference value: 8.67%); assay type: functional
SiHa [37] = assay: Effect on PI3K protein expression in human SiHa cells at 4 to 16 uM incubated for 24 hrs by Western blot analysis; assay type: functional, cell-based; conditions: dose 4-16 µM
[38] = biological target: Serine/threonine-protein kinase mTOR (Homo sapiens) (UniProt P42345); assay: Inhibition of mTOR phosphorylation in human SiHa cells at 4 to 16 uM incubated for 24 hrs by Western blot analysis; assay type: cell-based; conditions: dose 4-16 µM

RAC-alpha serine/threonine-protein kinase (Homo sapiens), sequence (P31749 whole entry): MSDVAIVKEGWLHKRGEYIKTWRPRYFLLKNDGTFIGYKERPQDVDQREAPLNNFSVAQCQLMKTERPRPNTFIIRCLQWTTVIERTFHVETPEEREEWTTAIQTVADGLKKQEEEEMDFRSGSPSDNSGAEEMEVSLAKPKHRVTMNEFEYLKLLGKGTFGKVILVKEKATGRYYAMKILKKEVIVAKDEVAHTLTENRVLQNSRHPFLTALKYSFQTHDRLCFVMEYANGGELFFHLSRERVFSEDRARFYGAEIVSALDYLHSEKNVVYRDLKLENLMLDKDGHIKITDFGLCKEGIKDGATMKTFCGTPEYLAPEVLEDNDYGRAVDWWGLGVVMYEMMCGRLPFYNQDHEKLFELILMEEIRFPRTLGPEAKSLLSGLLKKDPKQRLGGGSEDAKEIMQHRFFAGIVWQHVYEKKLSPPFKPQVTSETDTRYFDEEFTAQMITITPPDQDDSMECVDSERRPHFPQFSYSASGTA

Compound: COc1cc(OC)c(-c2nc3cc(N4CCOCC4)c(C#Cc4ccc(Cl)cc4)cc3[nH]2)cc1OC
- IC50 (SiHa [1]): > 100 µM
- IC50 (HeLa): 16.7 µM
- IC50 at 48 h [2]: 36.1 µM
- IC50 (Ca-Ski): > 100 µM
- IC50 at 48 h [3]: > 100 µM

Compound: COc1cc(OC)c(-c2nc3cc(N4CCOCC4)c(C#Cc4ccccc4F)cc3[nH]2)cc1OC
- IC50 (SiHa [1]): 27.2 µM
- IC50 (HeLa): 20.1 µM
- IC50 at 48 h [2]: 4.83 µM
- IC50 (Ca-Ski): 11.5 µM
- IC50 at 48 h [3]: 9.1 µM

Compound: COc1ccc(C#Cc2cc3[nH]c(-c4cc(OC)c(OC)c(OC)c4)nc3cc2N2CCOCC2)cc1
- IC50 (SiHa [1]): 26.8 µM
- IC50 (HeLa): 3.67 µM
- IC50 at 48 h [2]: 2.18 µM
- IC50 (Ca-Ski): 9.11 µM
- IC50 at 48 h [3]: 8.82 µM

Compound: COc1ccc(C#Cc2cc3[nH]c(-c4cc(OC)c(OC)c(OC)c4)nc3cc2N2CCN(C)CC2)cc1
- IC50 (SiHa [1]): 3.13 µM
- IC50 (HeLa): 2.07 µM
- IC50 at 48 h [2]: 0.41 µM
- IC50 (Ca-Ski): 1.39 µM
- IC50 at 48 h [3]: 2.29 µM

Compound: COc1cc(OC)c(-c2nc3cc(N4CCOCC4)c(C#Cc4ccccc4)cc3[nH]2)cc1OC
- IC50 (SiHa [1]): 25.1 µM
- IC50 (HeLa): 19.3 µM
- IC50 at 48 h [2]: 13.2 µM
- IC50 (Ca-Ski): 19.5 µM
- IC50 at 48 h [3]: 34.1 µM

Compound: COc1cc(-c2nc3cc(N4CCN(C)CC4)c(C#Cc4ccccc4)cc3[nH]2)cc(OC)c1OC
- IC50 (SiHa [1]): 5.05 µM
- IC50 (HeLa): 4.96 µM
- IC50 at 48 h [2]: 1.2 µM
- IC50 (Ca-Ski): 4.34 µM
- IC50 at 48 h [3]: 3.82 µM

Compound: COc1cc(-c2nc3cc(N4CCN(C)CC4)c(C#Cc4ccccc4F)cc3[nH]2)cc(OC)c1OC
- Activity (SiHa [4]): 8.71%
- Activity (SiHa [5]): 28.37%
- Activity [6]: 0%
- mortality at 96 h, 12.5 µM [7]: 0%
- Activity (SiHa [8]): inactive
- IC50 (SiHa [1]): 3.38 µM
- Activity [9]: 0%
- mortality at 96 h, 200 µM [10]: 0%
- Activity (SiHa [11]): 82.7%
- Activity (SiHa [12]): 55.29%
- Activity [13]: 0%
- Activity [14]: 0%
- inhibition [15]: Active
- IC50 (HeLa): 5.03 µM
- mortality at 96 h, 25 µM [16]: 0%
- mortality at 96 h, 100 µM [17]: 0%
- Activity (SiHa [18]): 82.37%
- mortality at 96 h, 50 µM [19]: 0%
- Activity (SiHa [20]): 8.49%
- Activity (SiHa [21]): 15.86%
- Activity (SiHa [22]): 66.56%
- mortality at 96 h, 400 µM [23]: 0%
- inhibition (Tubulin (Homo sapiens) [24]): Dose-Dependent Effect
- Activity [25]: 0%
- IC50 at 48 h [2]: 24 µM
- IC50 (Ca-Ski): 7.24 µM
- IC50 at 48 h [3]: 21.1 µM
- Activity (SiHa [26]): 7.26%
- Activity (SiHa [27]): 16.33%
- Activity [28]: 0%
- Activity (SiHa [29]): 8.92%
- Activity (SiHa [30]): 82.4%
- Activity (SiHa [31]): 8.55%
- inhibition (Tubulin (Homo sapiens) [32]): Dose-Dependent Effect
- inhibition (SiHa [33]): Active
- Activity (SiHa [34]): 9.89%
- Activity (SiHa [35]): inactive
- Activity (SiHa [36]): 16.43%
- Activity (SiHa [37]): inactive
- inhibition [38]: Active

Compound: Nc1cc(C(F)(F)F)c(-c2cc(N3CCOCC3)nc(N3CCOCC3)n2)cn1 [BUPARLISIB]
- Activity (SiHa [5]): 28.47%
- IC50 (SiHa [1]): 11.9 µM
- Activity (SiHa [11]): 10.27%
- Activity (SiHa [12]): 62.27%
- IC50 (HeLa): 9.06 µM
- Activity (SiHa [21]): 7.83%
- mortality at 96 h, 400 µM [23]: 0%
- IC50 at 48 h [2]: 6.11 µM
- IC50 (Ca-Ski): 0.74 µM
- IC50 at 48 h [3]: 59.2 µM
- Activity (SiHa [27]): 11.27%
- Activity [28]: 0%

Compound: COc1cc(-c2nc3cc(N4CCN(C)CC4)c(C#Cc4ccc(C(F)(F)F)cc4)cc3[nH]2)cc(OC)c1OC
- IC50 (SiHa [1]): 6.54 µM
- IC50 (HeLa): 3.13 µM
- IC50 at 48 h [2]: 1.41 µM
- IC50 (Ca-Ski): 1.38 µM
- IC50 at 48 h [3]: 2.3 µM

Compound: COc1cc(-c2nc3cc(N4CCN(C)CC4)c(C#Cc4ccc(Cl)cc4)cc3[nH]2)cc(OC)c1OC
- IC50 (SiHa [1]): 5.49 µM
- IC50 (HeLa): 3.45 µM
- IC50 at 48 h [2]: 4.12 µM
- IC50 (Ca-Ski): 3.97 µM
- IC50 at 48 h [3]: 2.07 µM

Compound: COc1cc(-c2nc3cc(N4CCOCC4)c(C#Cc4ccccc4Cl)cc3[nH]2)cc(OC)c1OC
- IC50 (SiHa [1]): 7.81 µM
- IC50 (HeLa): 10.4 µM
- IC50 at 48 h [2]: 5.37 µM
- IC50 (Ca-Ski): 13.5 µM
- IC50 at 48 h [3]: > 100 µM
